This is an account of results in the supplement of paper PMC11208160.
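Further: IS621 bridge recombinase in Escherichia coli cells against a fixed T5 target plasmid.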

The nature of this data set: recombinant UMI read abundance after kanamycin selection (control-corrected) (log10(CPM+1)); higher = more efficient recombination; extreme values may be limits of the assay; sequences stand for … in AGTGCAGAGAAAATCGGCCAGTTTTCTCTGCCTGCAGTCCGCATGCCGTGGGACCCCTTGGGTTCTAACCTGTTGCCTAGATTTATGCAGCGGACTGCCTTTCTCCCAAAGTGATAAACCGG…AGGTTGGTTTCACT; site = the 11-nt donor. Put shortly: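 Sequencing read counts were converted to CPM, averaged over two replicates and scaled by control-derived factors. Results are given as log10(CPM+1). The reads covered the donor–target junction of recombinant UMIs from a pooled Escherichia coli screen of donor and donor-binding-loop pairs for the IS621 bridge recombinase.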
Take “CTTCTCTCATGGACCGGTTTTCCCGGTAATCCGTATTTGTC (site CTTCTCTCTCA)”: the “recombinant UMI read abundance (log10)” value was determined as 0.0104.
The result for “CTTCTCTCATGGACCGGTTTTCCCGGTAATCCGTATTTGTC (site CTTCTCTCTGA)” reads 2.45; that for “CTTCTCTCATGGACCGGTTTTCCCGGTAATCCGTATTTGTC (site CTTCTCTCTTA)”, 0.836; that for “CTTGAAACATGGACCGGTTTTCCCGGTAATCCGTATTTGCA (site CTAGAAACTTG)”, 1.31.
To “CTTGAAACATGGACCGGTTTTCCCGGTAATCCGTATTTGCA (site CTCGAAACTTG)” belongs 0.00453; to “CTTGAAACATGGACCGGTTTTCCCGGTAATCCGTATTTGCA (site CTGGAAACTTG)”, 0.538; to “CTTGAAACATGGACCGGTTTTCCCGGTAATCCGTATTTGCA (site CTTGAAACTTG)”, 2.07.
“CTTGACGCATGGACCGGTTTTCCCGGTAATCCGTATTTGGT (site CTTGACGCTAC)”: the “recombinant UMI read abundance (log10)” value amounted to 0.601.
Turning to “CTTGAGTCATGGACCGGTTTTCCCGGTAATCCGTATTTGAT (site CTTGAGTCTAT)”, the “recombinant UMI read abundance (log10)” value worked out at 2.13.
With “CTTGAGTCATGGACCGGTTTTCCCGGTAATCCGTATTTGTT (site CTTGAGTCTAA)”, the “recombinant UMI read abundance (log10)” value worked out at 2.46.
To “CTTGTAACATGGACCGGTTTTCCCGGTAATCCGTATTTGGC (site CTTGTAACTGC)” belongs 0; to “CTTGTAGCATGGACCGGTTTTCCCGGTAATCCGTATTTGTC (site CTTGTAGCTGA)”, 0.797; to “CTTGTCTCATGGACCGGTTTTCCCGGTAATCCGTATTTGTA (site CTTATCTCTTA)”, 1.78.
The result for “CTTGTCTCATGGACCGGTTTTCCCGGTAATCCGTATTTGTA (site CTTCTCTCTTA)” reads 0.856; that for “CTTGTCTCATGGACCGGTTTTCCCGGTAATCCGTATTTGTA (site CTTGTCTCTTA)”, 2.82; that for “CTTGTCTCATGGACCGGTTTTCCCGGTAATCCGTATTTGTA (site CTTTTCTCTTA)”, 0.
The result for “CTTGTGTCATGGACCGGTTTTCCCGGTAATCCGTATTTGTG (site CTTGTGTCTCA)” reads 2.16.
On to “CTTGTTCCATGGACCGGTTTTCCCGGTAATCCGTATTTGGT (site ATTGTTCCTAC)”, for which the “recombinant UMI read abundance (log10)” value came to 0.0155.
The result for “CTTGTTCCATGGACCGGTTTTCCCGGTAATCCGTATTTGGT (site CTTGTTCCTAC)” reads 0.00959.
The result for “CTTGTTCCATGGACCGGTTTTCCCGGTAATCCGTATTTGGT (site GTTGTTCCTAC)” reads 0.0201; that for “CTTGTTCCATGGACCGGTTTTCCCGGTAATCCGTATTTGGT (site TTTGTTCCTAC)”, 0.0168.
The result for “CTTTACGCATGGACCGGTTTTCCCGGTAATCCGTATTTGTA (site CTTTACGCTTA)” reads 0.0146; that for “CTTTAGACATGGACCGGTTTTCCCGGTAATCCGTATTTGAG (site CATTAGACTCT)”, 0.351.
Take “CTTTAGACATGGACCGGTTTTCCCGGTAATCCGTATTTGAG (site CCTTAGACTCT)”: the “recombinant UMI read abundance (log10)” value was found to be 0.
The result for “CTTTAGACATGGACCGGTTTTCCCGGTAATCCGTATTTGAG (site CGTTAGACTCT)” reads 0.118; that for “CTTTAGACATGGACCGGTTTTCCCGGTAATCCGTATTTGAG (site CTTTAGACTCT)”, 1.31.
To “CTTTATACATGGACCGGTTTTCCCGGTAATCCGTATTTGTT (site CTTTATACTAA)” belongs 0.121; to “CTTTATTCATGGACCGGTTTTCCCGGTAATCCGTATTTGCG (site CTTTATTCTCG)”, 1.11.
To “CTTTGCCCATGGACCGGTTTTCCCGGTAATCCGTATTTGCT (site CTTTGCCCTAG)” belongs 0.182; to “CTTTGGGCATGGACCGGTTTTCCCGGTAATCCGTATTTGCC (site CTTTGGGCTGG)”, 0.
As for “CTTTTATCATGGACCGGTTTTCCCGGTAATCCGTATTTGAC (site CTAGTATCTGT)”, the “recombinant UMI read abundance (log10)” value came out at 0.225.
The result for “CTTTTATCATGGACCGGTTTTCCCGGTAATCCGTATTTGAC (site CTTTTATCTGT)” reads 0.762; that for “GAAAAACCATGGACCGGTTTTCCCGGTAATCCGTATTTGGT (site GAAAAACCTAC)”, 0; that for “GAAAAACCATGGACCGGTTTTCCCGGTAATCCGTATTTGGT (site GACAAACCTAC)”, 0.
Turning to “GAAAAACCATGGACCGGTTTTCCCGGTAATCCGTATTTGGT (site GAGAAACCTAC)”, the “recombinant UMI read abundance (log10)” value was determined as 0.
To “GAAAAACCATGGACCGGTTTTCCCGGTAATCCGTATTTGGT (site GATAAACCTAC)” belongs 0; to “GAAAAGGCATGGACCGGTTTTCCCGGTAATCCGTATTTGTC (site GAAAAGGCTGA)”, 2.08; to “GAAACACCATGGACCGGTTTTCCCGGTAATCCGTATTTGAG (site GAAACACCTCT)”, 0.0146.
The result for “GAAAGCCCATGGACCGGTTTTCCCGGTAATCCGTATTTGAC (site GAAAGCCCTGT)” reads 0; that for “GAAAGCTCATGGACCGGTTTTCCCGGTAATCCGTATTTGCC (site GAAAGCTCTGG)”, 2.75; that for “GAAATCTCATGGACCGGTTTTCCCGGTAATCCGTATTTGCG (site GAAATCTCTCG)”, 2.44.
To “GAAATGGCATGGACCGGTTTTCCCGGTAATCCGTATTTGAC (site GAAATGGCTGT)” belongs 1.42; to “GAACAATCATGGACCGGTTTTCCCGGTAATCCGTATTTGCC (site GAACAATCTGG)”, 1.67.
With “GAACCGTCATGGACCGGTTTTCCCGGTAATCCGTATTTGTT (site GAACCGTCTAA)”, the “recombinant UMI read abundance (log10)” value was determined as 1.
The result for “GAACGAACATGGACCGGTTTTCCCGGTAATCCGTATTTGGT (site GAACGAACTAC)” reads 1.21; that for “GAACTAGCATGGACCGGTTTTCCCGGTAATCCGTATTTGGT (site CGTTGCCCTTA)”, 0.00867; that for “GAACTGGCATGGACCGGTTTTCCCGGTAATCCGTATTTGCT (site GAACTGGCTAG)”, 0.00438.
To “GAACTTGCATGGACCGGTTTTCCCGGTAATCCGTATTTGAC (site CTTACCACTAA)” belongs 0.0118; to “GAAGAGACATGGACCGGTTTTCCCGGTAATCCGTATTTGCT (site GAAGAGACTAG)”, 2.79.
The result for “GAAGATGCATGGACCGGTTTTCCCGGTAATCCGTATTTGTT (site GAAGATACTAA)” reads 1.88; that for “GAAGATGCATGGACCGGTTTTCCCGGTAATCCGTATTTGTT (site GAAGATCCTAA)”, 0.286.
On to “GAAGATGCATGGACCGGTTTTCCCGGTAATCCGTATTTGTT (site GAAGATGCTAA)”, for which the “recombinant UMI read abundance (log10)” value was determined as 2.81.
